Data: patent US20130040882A1, “USE OF FIBROBLAST GROWTH FACTOR FRAGMENTS” (NOVARTIS AG, priority 2003, published 2013)
“And” between values parts separate entries of the source, which are not always exact repeats. Identical values can stand only once. “Also recorded” adds a separate entry of the source.

How the values were obtained:
[1] = system: transcript abundance in organs; test: Salmon calcitonin/PTS893 monkey study: multiorgan gene expression profiling (HG-U95Av2 arrays); format: in vivo, cynomolgus monkeys (Macaca fascicularis); design: key: B = bone; K = kidney; M = muscle; P = pituitary; L = liver; T = trachea
Description: A set of tissues was selected for gene expression profiling. These set included samples from kidney, bone, muscle, duodenum, pituitary and liver.
HG-U95Av2 GeneChip® expression probe arrays (Affymetrix, Santa Clara Calif. USA) were used. […] Workstation 400 (Affymetrix).
Data analysis was performed with the Silicon Genetics software package GeneSpring version 4.2.1 and 5. Average difference values below 20 were set to 20.
The threshold range for considering as up or down regulation was determined within the context of the biological interpretation of the study.
Increase and decrease reported here refer to transcript abundance, unless specifically stated.

[2] = Routine clinical and biochemical observations in FGF23CTP-treated monkeys; format: in vivo, cynomolgus monkey; details: 100 μg/day sc, two weeks
[3] = system: hyperoxia-induced angioproliferative retinopathy; test: Hypoxic vascular retinopathy mouse model: proliferation score on retinal flatmounts after intravitreal injection; format: in vivo, C57/B16J mice; design: key to blood vessel tufts: points summed over zones; Zone 2 max 4 P, Zones 3 and 4 max 12 P; avascular zone: scale not given here
Description: Seven days old C57/B16J mice are put together with their nursing parent in a sealed container ventilated by a mixture of oxygen and compressed air to a final oxygen concentration of 75%±2% until day 12. Returned at room air, the animals develop a relative ischemia of the retina with neovascularization starting as early as day 14.
On day 12, when animals returned from the oxygen incubation, a volume of 2.0 μl is injected in the eye using a glass pipette with a diameter of about 150 μm at its tip.
For the intravitreal injection of a substance at day 12, mice are anesthetized by inhalation of isoflurane. Five days later the animals are sacrificed after perfusion with dextran-fluorescein and retinal flatmounts are prepared. The coded whole mounts allow to evaluate the vascular changes of the retinal blindly. The proliferation score includes quantification of the proliferation including the papilla, vascular development, vasoconstriction, retinal bleeding and tortuosity of the vessels, features also seen in human retinal disease.
Of those, 8 animals died during hyperoxia or after injection, 2 animals are not perfused, 5 animals are paraffin embedded for evaluation of neurons, of which only three could be examined, and from 29 of these animals retinal flatmounts are prepared.
Evaluation of the angioproliferative changes in the retinal preparations is performed in a masked way on coded preparations. […] The following features are taken into consideration: neovascularisation of the optic disc, blood vessel tufts formation, large clusters of blood vessel tufts, central vasoconstriction and tortuosity of the vessels. Retinal haemorrhages are not taken into account as they may also result from the intraocular injection.
For each criteria, a defined number of points (P) is assigned, which are summed up to a total proliferation score. The higher the score, the worse the hypoxia induced retinopathy. In detail:
Neovascularisation of the optic disc: either 1 or 0 points are assigned in case optic disc proliferation is measured (1 P) or absence (0 P).
Blood vessel tufts formation: the score for blood vessel tufts is determined by dividing every clock hour of the preparation surface in 4 zones: Zone 1 (optic disc zone) is evaluated in addition; Zone 2: one point for every wing (maximal 4 P); Zone 3: one point for every clock hour (maximal 12 P); and Zone 4: one point for every clock hour (maximal 12 P). Thus, a maximum of 28 points is measured provided that no avascular areas exist, and a maximum of 12 points is calculated in case of complete avascularization.
Large clusters of blood vessel tufts: every large cluster of blood vessel tufts covering more than 3 sectors is counted as one point. Thus, maximal 8 points can be measured provided that no avascular areas exist, and maximal 4 points are assignable for complete avascularization.
Central vasoconstriction: 1 point is assigned to a vasoconstriction of zone 1 of greater than 50%; 1 point is allocated if the vasoconstriction is greater than 50% of every wing of zone 2 and 3. Thus, maximal 1 point can be assigned to zone 1, and maximal 4 points each for zones 2, 3 and 4. Since so far no vasoconstriction is ever observed for zone 4, a maximum of total 9 points (without zone 4) can be allotted.
Tortuosity of the vessels: 2 points are assigned if less than one-third of the vessels are tortuous; if the amount of tortuous blood vessels is between one-third and two-thirds, 4 points are allocated, and in case more than two-thirds of the vessels are tortuous, than 6 points are given.
Proliferation in avascular zones is never observed. This is in principle a mutual exclusion of criteria; the existence of vascular proliferations has a higher impact on the retinopathy score than large avascular areas. Therefore, the maximum score ever counted with this system is 38 points using a substance which is considered to enhance vascular proliferation.
The severity of retinopathy varies from animal to animal. […]

[4] = Effects on Osteoblasts, autocrine/paracrine regulation of osteoblast function
[5] = Effects on Osteoblasts, endocrine regulation of osteoblast function
[6] = Effects on Osteoclasts: bone resorption by osteoclast
[7] = Effects on Osteoclasts: osteoclast determination, survival and differentiation
[8] = Extracellular matrix, collagen synthesis
[9] = right eye, FGF23CTP intravitreal, individual animals, retinal flatmounts
[10] = treated right eye (FGF23CTP) vs control left eye (PBS), DF 28

Molecule: Leu8, Asp10, Lysll, A1a16, G1n18, Thr33, A1a34 human PTH 1-34 [PTS893, Leu8, Asp10, Lysll, A1a16, G1n18, Thr33, A1a34 human PTH 1-34 [hPTH(1-34)]]
- Organs where changes in expression were seen: Cyclin-dependent kinases 5, 6, 10 ([1]; Cell cycle): B
- Organs where changes in expression were seen: Cyclin-dependent kinases inhibitor 1A, 1C, 2D) ([1]; Cell cycle): B
- Organs where changes in expression were seen: Cyclins (A, A2, B1, C, D2, E2, G1, G2) ([1]; Cell cycle): B
- Organs where changes in expression were seen: Bone Morphogenetic Proteins [1, 4]: B
- Organs where changes in expression were seen: Fibroblast Growth Factors [1, 4]: B
- Organs where changes in expression were seen: Insulin-like Growth Factors [1, 4]: B
- Organs where changes in expression were seen: TGFs [1, 4]: B
- Organs where changes in expression were seen: Tob [1, 4]: B
- Organs where changes in expression were seen: Activin [1, 5]: B
- Organs where changes in expression were seen: Retinoic receptor X [1, 5]: B
- Organs where changes in expression were seen: Y-box binding protein ([1]; Effects on Osteoblasts, transcription factor that regulates collagen type 1 synthesis): B
- Organs where changes in expression were seen: H+ ATP-ases [1, 6]: B
- Organs where changes in expression were seen: ODF/OPGL: osteoprotegerin ligand [1, 6]: B
- Organs where changes in expression were seen: Granulocyte to macrophage colony-stimulating factor (CSF1) [1, 7]: B
- Organs where changes in expression were seen: Monocyte to macrophage differentiation associate (MMD) [1, 7]: B
- Organs where changes in expression were seen: PU.1 (SPI1) [1, 7]: B
- Organs where changes in expression were seen: Aggrecan ([1]; Extracellular matrix component): B
- Organs where changes in expression were seen: Chondroitin sulphate proteoglycan ([1]; Extracellular matrix component): B
- Organs where changes in expression were seen: Dermatopontin ([1]; Extracellular matrix component): B
- Organs where changes in expression were seen: Heparan sulphate proteoglycan ([1]; Extracellular matrix component): B
- Organs where changes in expression were seen: Syndecan ([1]; Extracellular matrix component): B
- Organs where changes in expression were seen: Integrins ([1]; Extracellular matrix, cell attachment, signal transduction): B
- Organs where changes in expression were seen: Lysyl hydroxylase [1, 8]: B
- Organs where changes in expression were seen: Procollagen endopeptidase/proteinase [1, 8]: B
- Organs where changes in expression were seen: Adenylate cyclase ([1]; Signal transduction): B
- Organs where changes in expression were seen: CREM ([1]; Signal transduction): B
- Organs where changes in expression were seen: Calcyclin binding protein ([1]; Signal transduction): B
- Organs where changes in expression were seen: MAPK ([1]; Signal transduction): B
- Organs where changes in expression were seen: Phosphatidylinositol pathway ([1]; Signal transduction): B
- Organs where changes in expression were seen: Phosphodiesterase (IB, 4A, 4B) ([1]; Signal transduction): B
- Organs where changes in expression were seen: Phospholipase (C, D) ([1]; Signal transduction): B
- Organs where changes in expression were seen: SMAD pathway ([1]; Signal transduction): B
- Organs where changes in expression were seen: STAT pathway ([1]; Signal transduction): B
- Organs where changes in expression were seen: Amelogenin (cement component) ([1]; cynomolgus monkey, in vivo): B
- Organs where changes in expression were seen: Dentin (mineral matrix protein) ([1]; cynomolgus monkey, in vivo): B
- Organs where changes in expression were seen: VEGF ([1]; cynomolgus monkey, in vivo): B

B1: FGF23CTP: unique 75-mer COOH-terminal peptide of FGF-23, SEQ ID NO: 2 (peptide, listed as Homo sapiens)
chain: HTRSAEDDSERDPLNVLKPRARMTPAPASCSQELPSAEDNSPMASDPLGVVRGGRVNTHAGGTGPEGCRPFAKFI
- Effect on phosphate metabolism [2]: no effect
- Routine clinical or biochemical changes [2]: No routine clinical or biochemical changes
- Proliferation score, Mean Difference (paired t-test, treated right eye vs PBS left eye) ([3]; 6 μg intravitreal, DF 28, P-Value 0.0375): −3.172
- Effect on proliferative component of retinal angiopathy / proliferation score ([3]; intravitreal injection, b229 p=0.018, b476 paired t-test p=0.04): significantly inhibited; also recorded: reaches statistical significance
- avascular zone [3, 9]: 1 (7×) and 2 (4×) and 0 (3×) and 3 (7×) and 4 (4×) and 7 and 6 (2×) and 5
- blood vessel tufts [3, 9]: 6 (4×) and 2 (3×) and 4 (3×) and 1 (2×) and 3 and 5 (2×) and 0 (2×) and 7 (4×) and 10 (3×) and 14 (2×) and 13 and 11 and 9
- large clusters of prolif. [3, 9]: 0 (16×) and 1 (6×) and 2 (2×) and 3 (2×) and 4 (2×) and 5
- proliferation sum [3, 9]: 7 (2×) and 2 (3×) and 4 (4×) and 1 (2×) and 6 (4×) and 5 and 0 (2×) and 8 (2×) and 10 (2×) and 11 and 17 and 12 (2×) and 18 (2×) and 14
- tortuosity of vessels [3, 9]: 0 (8×) and 2 (7×) and 3 and 1 (9×) and 5 and 6 (2×) and 4
- Paired t-test avascular zone: Mean Difference [3, 10]: −0.034
- Paired t-test proliferation sum: Mean Difference [3, 10]: −2.724
- Paired t-test tortuosity of the vessels: Mean Difference [3, 10]: −0.517
